Data taken from article PMC9090415, “Discovery of small molecule inhibitors of Plasmodium falciparum apicoplast DNA polymerase” (Journal of Enzyme Inhibition and Medicinal Chemistry, 2022).

Molecular target: P. falciparum apicoplast DNA polymerase (Pf-apPOL) (Plasmodium falciparum, UniProt Q8ILY1)
Assay: Fluorescence-based high-throughput DNA polymerase assay (molecular beacon), primary screen and dose-response;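 as to % inhibition ApPOL 90': test concentration in µM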;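 as to % inhibition apPOL 180': test concentration in µM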
Format: biochemical
Settings: for IC50: supplemental file 2, sheet IC50 nontoxic compounds, Pf-apPOL; for DNA Pol: unit not given, 90 min, 10 µM
Procedure, shortened: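 Single-point screening used 10 µM compound with 20 nM polymerase, 20 nM hairpin substrate and 6 µM dNTPs for 90 min at 25 °C. Confirmatory titrations (2.5–80 µM) followed fluorescence at three times, and IC50 was derived from a fit including a cooperativity term n.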

Chain of P. falciparum apicoplast DNA polymerase (Pf-apPOL) (Q8ILY1 entry or part of it): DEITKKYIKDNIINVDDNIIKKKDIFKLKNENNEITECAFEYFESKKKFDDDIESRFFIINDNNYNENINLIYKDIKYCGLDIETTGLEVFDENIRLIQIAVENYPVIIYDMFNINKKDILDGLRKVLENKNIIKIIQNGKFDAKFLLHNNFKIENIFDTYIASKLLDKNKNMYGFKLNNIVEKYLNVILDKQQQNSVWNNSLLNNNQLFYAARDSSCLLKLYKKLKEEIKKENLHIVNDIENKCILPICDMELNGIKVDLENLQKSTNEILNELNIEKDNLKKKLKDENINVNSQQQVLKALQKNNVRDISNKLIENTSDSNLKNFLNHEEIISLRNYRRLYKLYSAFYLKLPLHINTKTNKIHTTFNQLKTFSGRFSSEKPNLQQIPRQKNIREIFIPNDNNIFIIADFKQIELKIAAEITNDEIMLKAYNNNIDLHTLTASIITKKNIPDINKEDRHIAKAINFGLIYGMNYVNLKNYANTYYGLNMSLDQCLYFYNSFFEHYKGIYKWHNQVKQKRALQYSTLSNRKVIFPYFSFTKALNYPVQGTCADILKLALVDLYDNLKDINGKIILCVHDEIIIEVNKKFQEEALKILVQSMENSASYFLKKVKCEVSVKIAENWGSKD

CO/N=C(\C(=O)N[C@@H]1C(=O)N2C(C(=O)O)=C(CSc3nc(=O)c(O)nn3C)CSC12)c1csc(N)n1 (stereo partly drawn) [Molecule 83]
IC50: 18.7 µM

Cc1ccc(C)c(CSc2nc(C3CCCCC3)c(C#N)c(=O)[nH]2)c1 [Molecule 6, N#Cc1c(=O)[nH]c(nc1C1CCCCC1)SCc1cc(C)ccc1C]
DNA Pol ('DNA Pol' of the 186 hits list (primary screen result)): 98 | % inhibition Apo pol 10' (DRC-1, concentration 2.5): 19.6577% | % inhibition Apo pol 10' (DRC-1, concentration 5): 38.2184% | % inhibition Apo pol 10' (DRC-1, concentration 10): 71.2419% | % inhibition Apo pol 10' (DRC-1, concentration 20): 88.8023% | % inhibition Apo pol 10' (DRC-1, concentration 40): 92.9931% | % inhibition Apo pol 10' (DRC-1, concentration 80): 97.5171% | % inhibition Apol 90' (DRC-1, 90', concentration 2.5): 7.563% | % inhibition Apol 90' (DRC-1, 90', concentration 5): 29.5473% | % inhibition Apol 90' (DRC-1, 90', concentration 10): 66.2339% | % inhibition Apol 90' (DRC-1, 90', concentration 20): 83.4926% | % inhibition Apol 90' (DRC-1, 90', concentration 40): 89.6774% | % inhibition Apol 90' (DRC-1, 90', concentration 80): 97.7776% | % inhibition apPOL 180' (DRC-1, 180', concentration 2.5): -0.2009% | % inhibition apPOL 180' (DRC-1, 180', concentration 5): 17.3135% | % inhibition apPOL 180' (DRC-1, 180', concentration 10): 54.7895% | % inhibition apPOL 180' (DRC-1, 180', concentration 20): 77.2836% | % inhibition apPOL 180' (DRC-1, 180', concentration 40): 85.5131% | % inhibition apPOL 180' (DRC-1, 180', concentration 80): 97.5591% | % inhibition Apol 40' (DRC-2, 40', concentration 2.5 (unit not given)): 13% | % inhibition ApPOL 90' (DRC-2, 90', concentration 40 (unit not given)): 80% | % inhibition apPOL 180' (DRC-2, 180', concentration 5 (unit not given)): 10% | % inhibition apPOL 180' (DRC-2, 180', concentration 40 (unit not given)): 80% | % inhibition apPOL 180' (DRC-2, 180', concentration 80 (unit not given)): 80% | % inhibition Apo pol 5' (DRC-2, concentration 2.5): 9% | % inhibition Apo pol 5' (DRC-2, concentration 5): 13% | % inhibition Apo pol 5' (DRC-2, concentration 5 (unit not given)): 13% | % inhibition Apo pol 5' (DRC-2, concentration 20): 59% | % inhibition Apo pol 5' (DRC-2, concentration 40): 63% | % inhibition Apo pol 5' (DRC-2, concentration 80): 61% | % inhibition Apol 40' (DRC-2, 40', concentration 2.5): 13% | % inhibition Apol 40' (DRC-2, 40', concentration 5): 18% | % inhibition Apol 40' (DRC-2, 40', concentration 10): 51% | % inhibition Apol 40' (DRC-2, 40', concentration 20): 69% | % inhibition Apol 40' (DRC-2, 40', concentration 40): 77% | % inhibition Apol 40' (DRC-2, 40', concentration 80): 75% | % inhibition ApPOL 90' (DRC-2, 90', concentration 2.5): 10% | % inhibition ApPOL 90' (DRC-2, 90', concentration 2.5 (unit not given)): 10% | % inhibition ApPOL 90' (DRC-2, 90', concentration 5): 16% | % inhibition ApPOL 90' (DRC-2, 90', concentration 10): 50% | % inhibition ApPOL 90' (DRC-2, 90', concentration 20): 71% | % inhibition ApPOL 90' (DRC-2, 90', concentration 40): 80% | % inhibition ApPOL 90' (DRC-2, 90', concentration 80): 78% | % inhibition apPOL 180' (DRC-2, 180', concentration 2.5): 5.53% | % inhibition apPOL 180' (DRC-2, 180', concentration 5): 10% | % inhibition apPOL 180' (DRC-2, 180', concentration 20): 67% | % inhibition apPOL 180' (DRC-2, 180', concentration 40): 80% | % inhibition apPOL 180' (DRC-2, 180', concentration 80): 80% | DNA Pol (primary screen value of the library well): 98

CCOc1ccc(/C=C2\N=C(c3cc([N+](=O)[O-])cc([N+](=O)[O-])c3)OC2=O)cc1 [Molecule 97]
IC50: 4.47 µM
